Reference: patent publication US6054478A, “Antifungal sordaridin derivatives” (Glaxo Wellcome S.A., priority 1994, dated 2000)
Values after ≈ are worked out from the molar mass of the structure shown.

Columns and labels:
[1] = tested on: C. albicans 1208E; experiment: in vitro antifungal MIC, two-fold serial dilution; format: cell-based; settings: Candida albicans, 24 to 48 hours at 37° C
Procedure: (§1) The in vitro evaluation of the anti-fungal activity of compounds of the invention was performed on liquid or solid medium by the anti-fungal two-fold serial dilution technique of determining the minimum inhibitory concentration (MIC) of anti-fungal agent that inhibited development of growth after 24 to 48 hours of incubation at 37° C. In practice, a series of agar plates or broth microdilution panels containing two-fold dilutions of anti-fungal agent tested were inoculated with a standard culture of a clinically relevant pathogen, for example, candida albicans. The agar plates or broth microdulution panels were then examined for the presence or absence of growth of the fungus and the appropriate MIC values were noted. Compounds of formula (I) have been tested for anti fungal activity in a standard in vitro screen and the minimum inhibiting concentration (MIC; μg/ml) determined for each compound against a variety of clinically relevant pathogens.

[2] = tested on: C. albicans 2005E; experiment: in vitro antifungal MIC, two-fold serial dilution; format: cell-based; settings: Candida albicans, 24 to 48 hours at 37° C
Procedure: as §1

[3] = tested on: C. albicans 2402E; experiment: in vitro antifungal MIC, two-fold serial dilution; format: cell-based; settings: Candida albicans, 24 to 48 hours at 37° C
Procedure: as §1

[4] = tested on: C. albicans 4711; experiment: in vitro antifungal MIC, two-fold serial dilution; format: cell-based; settings: Candida albicans, 24 to 48 hours at 37° C
Procedure: as §1

[5] = tested on: C. glabrata 2375E; experiment: in vitro antifungal MIC, two-fold serial dilution; format: cell-based; settings: Nakaseomyces glabratus, 24 to 48 hours at 37° C
Procedure: as §1

[6] = tested on: C. glabrata 2376E; experiment: in vitro antifungal MIC, two-fold serial dilution; format: cell-based; settings: Nakaseomyces glabratus, 24 to 48 hours at 37° C
Procedure: as §1

[7] = tested on: C. neoformans 2867E; experiment: in vitro antifungal MIC, two-fold serial dilution; format: cell-based; settings: Cryptococcus neoformans, 24 to 48 hours at 37° C
Procedure: as §1

[8] = tested on: C. albicans 4711E; experiment: in vivo protection of mice infected with C. albicans; design: species or system Candida albicans; male mice; settings: 50 mg/kg sc
Text: The in vivo evaluation of compounds of formula (I) can be carried out at a series of dose levels by administration (e.g. subcutaneously, orally, intraperitoneally or intravenously) to mice or rats inoculated with a strain of Candida albicans. Untreated animals die within 3 to 9 days and the dose level at which the test compound provides 50% protection against the lethal effect of the infection is noted.
(§2) The compounds of the invention are essentially non-toxic at therapeutically useful levels.

[9] = adverse effects in treated mice; format: in vivo, male mice; settings: 50 mg/kg sc
Text: as §2

[10] = tested on: C. tropicalis 2808E; experiment: in vitro antifungal MIC, two-fold serial dilution; format: cell-based; settings: Candida tropicalis, 24 to 48 hours at 37° C
Procedure: as §1

[11] = tested on: C. psuedotropicalis 371E; experiment: in vitro antifungal MIC, two-fold serial dilution; format: cell-based, Candida pseudotropicalis; settings: Kluyveromyces marxianus, 24 to 48 hours at 37° C
Procedure: as §1

[12] = tested on: fungal organisms; settings: cited from earlier work; for antifungal activity (reported): reported in the literature; for antifungal activity and spectrum of action: when tested against a battery of fungal organisms

SMILES	MIC [1]	MIC [2]	MIC [3]	MIC [4]	MIC [5]	MIC [6]	MIC [7]	protection of male mice infected with C. albicans 4711E [8]	adverse effects in the treated mice [9]	MIC [10]	MIC [11]	antifungal activity (reported) [12]	antifungal activity and spectrum of action [12]
COC1C(C)OC(OCC23CC4C(C)CCC4C4(C=O)CC2C=C(C(C)C)C43C(=O)O)C(O)C1N=[N+]=[N-] [Example 10, [1R-(1α, 3aβ, 4β, 4aβ, 7β, 7aα, 8aβ)] 8a-[(3-Azido-3,6-dideoxy-4-O-methylβ-D-altropyranosyloxy)methyl]-4-formyl-4,4a,5,6,7,7a,8,8a-octahydro-7-methyl-3-(1-methylethyl)-1,4-methano-s-indacene-3a(1H)-carboxylic acid]	1 µg/mL (≈ 1.93 µM)	0.12 µg/mL (≈ 0.232 µM)	1 µg/mL (≈ 1.93 µM)	0.5 µg/mL (≈ 0.966 µM)	62 µg/mL (≈ 120 µM)	62 µg/mL (≈ 120 µM)	4 µg/mL (≈ 7.73 µM)	active in protecting male mice	no adverse effects were observed	–	–	–	–
COC1C(C)OC(OCC23CC4C(C)CCC4C4(C=O)CC2C=C(C(C)C)C43C(=O)O)C(O)C1SC [Example 11, [1R-(1α, 3aβ, 4β, 4aβ, 7β, 7aα, 8aβ)] 8a-[(3,6-Dideoxy-4-O-methyl-3-methylthio-β-D-altropyranosyloxy)methyl]-4-formyl-4,4a,5,6,7,7a,8,8a-octahydro-7-methyl-3-(1-methylethyl)-1,4-methano-s-indacene-3a(1H)-carboxylic acid]	1 µg/mL (≈ 1.91 µM)	0.25 µg/mL (≈ 0.478 µM)	1 µg/mL (≈ 1.91 µM)	1 µg/mL (≈ 1.91 µM)	31 µg/mL (≈ 59.3 µM)	31 µg/mL (≈ 59.3 µM)	0.05 µg/mL (≈ 0.0957 µM)	–	–	2 µg/mL (≈ 3.83 µM)	1 µg/mL (≈ 1.91 µM)	–	–
CCCOC1C(C)OC(OCC23CC4C(C)CCC4C4(C=O)CC2C=C(C(C)C)C43C(=O)O)CC1OC [Example 9, [1R-(1α, 3aβ, 4β, 4aβ, 7β, 7aα, 8aβ)] 8a-[(2,6-Dideoxy-3-O-methyl-4-O-propyl-β-D-allopyranosyloxy)methyl]-4-formyl-4,4a,5,6,7,7a,8,8a-octahydro-7-methyl-3-(1-methylethyl)-1,4-methano-s-indacene-3a(1H)-carboxylic acid]	8 µg/mL (≈ 15.4 µM)	2 µg/mL (≈ 3.86 µM)	8 µg/mL (≈ 15.4 µM)	4 µg/mL (≈ 7.71 µM)	> 125 µg/mL	> 125 µg/mL	125 µg/mL (≈ 241 µM)	–	–	16 µg/mL (≈ 30.8 µM)	2 µg/mL (≈ 3.86 µM)	–	–
CCCCCCCC(=O)OC1C(O)C(OCC23CC4C(C)CCC4C4(C=O)CC2C=C(C(C)C)C43C(=O)O)OC(C)C1OC [Example 24, [1R-(1α, 3aβ, 4β, 4aβ, 7β, 7aα, 8aβ,)] 8a-[(6-Deoxy-4-O-methyl-3'-O-octanoyl-β-D-altropyranosyloxy)methyl]-4-formyl-4,4a,5,6,7,7a,8,8a-octahydro-7-methyl-3-(1-methylethyl)-1,4-methano-s-indacene-3a(1H)-carboxylic acid]	0.6 µg/mL (≈ 0.97 µM)	≤ 0.001 µg/mL	0.03 µg/mL (≈ 0.0485 µM)	–	500 µg/mL (≈ 808 µM)	500 µg/mL (≈ 808 µM)	0.25 µg/mL (≈ 0.404 µM)	–	–	0.06 µg/mL (≈ 0.097 µM)	0.004 µg/mL (≈ 0.00646 µM)	–	–
COC1C(N=[N+]=[N-])CC(OCC23CC4C(C)CCC4C4(C=O)CC2C=C(C(C)C)C43C(=O)O)OC1C [Example 15, [1R-(1α, 3aβ, 4β, 4aβ, 7β, 7aα, 8aβ)] 8a-[(3-Azido-4-O-methyl-2,3,6-trideoxy-β-D-allopyranosyloxy)methyl]-4-formyl-4,4a,5,6,7,7a,8,8a-octahydro-7-methyl-3-(1-methylethyl)-1,4-methano-s-indacene-3a(1)-carboxylic acid]	≤ 0.001 µg/mL	≤ 0.001 µg/mL	≤ 0.001 µg/mL	≤ 0.001 µg/mL	1 µg/mL (≈ 1.99 µM)	1 µg/mL (≈ 1.99 µM)	31 µg/mL (≈ 61.8 µM)	–	–	0.004 µg/mL (≈ 0.00797 µM)	≤ 0.001 µg/mL	–	–
COC1C(C)OC(OCC23CC4C(C)CCC4C4(C=O)CC2C=C(C(C)C)C43C(=O)O)C(O)C1O (stereo not shown) [sordarin]	–	–	–	–	–	–	–	–	–	–	–	fungistatic activity	only moderately active and have limited spectra of action
COCOC1CC(OCC23CC4C(C)CCC4C4(C=O)CC2C=C(C(C)C)C43C(=O)O)OC(C)C1OC [Example 8, [1R-(1α, 3aβ, 4β, 4aβ, 7β, 7aα, 8aβ)] 8a-[(2,6-Dideoxy-4-O-methyl-3-O-methyloxymethyl-β-D-allopyranosyloxy)methyl]-4-formyl-4,4a,5,6,7,7a,8,8a-octahydro-7-methyl-3-(1-methylethyl)-1,4-methano-s-indacene-3a(1H)-carboxylic acid]	0.25 µg/mL (≈ 0.48 µM)	0.03 µg/mL (≈ 0.0576 µM)	0.25 µg/mL (≈ 0.48 µM)	0.12 µg/mL (≈ 0.23 µM)	16 µg/mL (≈ 30.7 µM)	16 µg/mL (≈ 30.7 µM)	31 µg/mL (≈ 59.5 µM)	–	–	2 µg/mL (≈ 3.84 µM)	0.12 µg/mL (≈ 0.23 µM)	–	–
CCCCCCOC1C(O)C(OCC23CC4C(C)CCC4C4(C=O)CC2C=C(C(C)C)C43C(=O)O)OC(C)C1OC [Example 3, [1R-(1α, 3aβ, 4β4aβ, 7β, 7aα, 8aβ)] 8a-[(6-Deoxy-3-O-hexyl-4-O-methyl-β-D-altropyranosyloxy)methyl]-4-formyl-4,4a,5,6,7,7a,8,8a-octahydro-7-methyl-3-(1-methylethyl)-1,4-methano-s-indacene-3a(1H)-carboxylic acid]	4 µg/mL (≈ 6.94 µM)	0.25 µg/mL (≈ 0.433 µM)	2 µg/mL (≈ 3.47 µM)	–	> 125 µg/mL	> 125 µg/mL	31 µg/mL (≈ 53.7 µM)	–	–	1 µg/mL (≈ 1.73 µM)	0.25 µg/mL (≈ 0.433 µM)	–	–
COC1CC(OCC23CC4C(C)CCC4C4(C=O)CC2C=C(C(C)C)C43C(=O)O)OC(C)C1OC [Example 5, [1R-(1α, 3aβ, 4β, 4aβ, 7β, 7aα, 8aβ)] 8a-[(2,6-Dideoxy-3,4-O-dimethyl-β-D-allopyranosyloxy)methyl]-4-formyl-4,4a,5,6,7,7a,8,8a-octahydro-7-methyl-3-(1-methylethyl)-1,4-methano-s-indacene-3a(1H)-carboxylic acid]	≤ 0.001 µg/mL	≤ 0.001 µg/mL	≤ 0.001 µg/mL	≤ 0.001 µg/mL	1 µg/mL (≈ 2.04 µM)	1 µg/mL (≈ 2.04 µM)	31 µg/mL (≈ 63.2 µM)	–	–	0.004 µg/mL (≈ 0.00815 µM)	≤ 0.001 µg/mL	–	–
COC1CCC(OCC23CC4C(C)CCC4C4(C=O)CC2C=C(C(C)C)C43C(=O)O)OC1C [Example 39, [1R-(1α, 3aβ, 4aβ, 7β, 7aα, 8aβ)] 8a-[(2,3,6-Trideoxy-4-O-methyl-β-D-allopyranosyloxy)methyl]-4-formyl-4,4a,5,6,7,7a,8,8a-octahydro-7-methyl-3-(1-methylethyl)-1,4-methano-s-indacene-3a(1H)-carboxylic acid]	0.06 µg/mL (≈ 0.13 µM)	0.004 µg/mL (≈ 0.00868 µM)	0.06 µg/mL (≈ 0.13 µM)	–	8 µg/mL (≈ 17.4 µM)	8 µg/mL (≈ 17.4 µM)	62 µg/mL (≈ 135 µM)	–	–	0.25 µg/mL (≈ 0.543 µM)	0.008 µg/mL (≈ 0.0174 µM)	–	–
CC(=O)OC1C(C)OC(OCC23CC4C(C)CCC4C4(C=O)CC2C=C(C(C)C)C43C(=O)O)CC1SC(C)=O [Example 42, [1R-(1α, 3aβ, 4β, 4aβ, 7β, 7aα, 8aβ)] 8a-(((2,3,6-Trideoxy-4-O-acetyl-3-acetylthio-b-D-allopyranosyl)oxy)methyl)-4-formyl-4,4a,5,6,7,7a,8,8a-octahydro-7-methyl-3-(1-methylethyl)-1,4-methano-s-indacene-3a(1H)-carboxylic acid]	0.06 µg/mL (≈ 0.107 µM)	≤ 0.001 µg/mL	0.06 µg/mL (≈ 0.107 µM)	0.015 µg/mL (≈ 0.0267 µM)	31 µg/mL (≈ 55.1 µM)	31 µg/mL (≈ 55.1 µM)	> 125 µg/mL	–	–	1 µg/mL (≈ 1.78 µM)	≤ 0.001 µg/mL	–	–
CC=CC=CC(=O)OC1C(O)C(OCC23CC4C(C)CCC4C4(C=O)CC2C=C(C(C)C)C43C(=O)O)OC(C)C1OC (stereo not shown) [zofimarin]	–	–	–	–	–	–	–	–	–	–	–	antifungal activity	only moderately active and have limited spectra of action
